# Laboratory results from PubChem BioAssay AID1996.
# Settings: buffer; pH 7.4; 200.0 µM
row,Compound,solubility kinetic [µg/mL]
1,O=C(c1ccccc1Oc1ccc([N+](=O)[O-])cc1)N1CCOCC1,> 49.2
2,COc1ccc(CCC(C)NCC(C)c2ccccc2)cc1 (configuration not stated),> 44.6
3,Cc1ccc(NC(=O)C2CC(O)CN2C(=O)OCc2ccccc2)c(C)c1 (configuration not stated),37.2
4,CC1=CCC2C(=O)N(c3ccc(OC(=O)c4ccco4)cc3)C(=O)C2C1 (configuration not stated),21.5
5,Br.Cc1ccnc(Nc2nc(-c3sc(C)nc3C)cs2)c1,3.6
6,COc1ccc(S(=O)(=O)N2CCCCCC2)cc1NC(=O)CN1C(=O)CNC1=O,> 63.7
7,CCCC(=O)Nc1ccc(S(=O)(=O)Nc2cc(OC)ncn2)cc1,> 52.6
8,CCOc1ccc(S(=O)(=O)NCc2ccccn2)c(C)c1C,> 48.1
9,Cc1ccc(C(=O)COC(=O)c2cc(=O)[nH]c3ccccc23)cc1,1.1
10,COc1cccc(OC)c1C(=O)NC(=S)NCc1cccnc1,11.3
11,CCOC(=O)c1[nH]c(C)c(C(=O)OC)c1C,> 33.8
12,CNC(=S)NC1(C)CCS(=O)(=O)C1 (configuration not stated),> 33.3
13,Cc1ccc(OCC(=O)Nc2cccc3ccccc23)c([N+](=O)[O-])n1,31.5
14,Cc1nc2ccccc2c(=O)n1-c1cccc([N+](=O)[O-])c1,36.4
15,COc1cc(/C=C/C(=O)Nc2ccc(OC)c(S(=O)(=O)N3CCOCC3)c2)ccc1OC(F)F,2.6
16,COCCSc1ccccc1C(=O)Nc1cc(C)cc(C)c1,41.2
17,COc1cc([N+](=O)[O-])ccc1NC(=O)Nc1cnccn1,0.8
18,CN1C(=S)SC(C)(C)C1N(O)C(=O)Nc1ccc(Cl)cc1 (configuration not stated),4.2
19,CSc1ncccc1C(=O)NCC(c1ccco1)N1CCCCC1 (configuration not stated),> 51.8
20,O=c1[nH]c(N2CCCCC2)nc2ncn(Cc3ccccc3)c12,33.3
21,CCOc1ccc(C2=CSC3=NCCN23)cc1[N+](=O)[O-],36.2
22,O=C(NCCCc1nc2ccccc2[nH]1)c1cccs1,37.4

row,Compound,solubility kinetic [µg/mL]
1,CC(=O)N(Cc1ccccc1)c1c(N)nc(N)[nH]c1=O,> 41
2,COc1ccc(S(=O)(=O)NC2CCCC2)c(OC)c1,> 42.8
3,CCOC(=O)c1ccc(-c2ccc3c(c2)CCC3)nc1C,< 0.6
4,COc1ccc(NC(=O)Cn2cc(C(C)=O)c3ccccc32)cc1,0.5
5,Cc1cc(C)cc(NC(=O)CN2CCN(c3ccccc3)CC2)c1,1.8
6,Cc1cccc2c(=O)cc(C)n(CC(N)=O)c12,> 34.5
7,CC(=O)c1ccc(-n2ccnc2)cc1,> 27.9
8,Cc1nc(NCc2ccccc2)sc1C(=O)Nc1ccccc1,0.8
9,Cc1ccc(C(=O)N2CCN(c3ccccn3)CC2)cc1[N+](=O)[O-],44.8
10,CC(=O)C1=C(O)C(=O)N(c2nccs2)C1c1ccccc1F (configuration not stated),> 47.7
11,Cc1cccnc1NC(=O)C(c1ccccc1)c1ccccc1,> 45.4
12,O=C(C1CCCC1)N1CCCC(Nc2ccc(F)cc2)C1 (configuration not stated),> 43.6
13,CCOC(=O)C(=O)Nc1ccccc1C(=O)OCC,> 39.8
14,COc1ccc(C(=O)Nc2cc(C)on2)c(OC)c1,21.4
15,Cc1ccc(NC(=O)C2C3CCCCC32)cc1[N+](=O)[O-] (configuration not stated),0.5
16,COc1ccc(NC(=S)NC(=O)Cc2ccccc2)c(OC)c1,1.7
17,CC(=O)NC(CC(=O)OCC(=O)c1cc(C)ccc1C)c1ccccc1 (configuration not stated),> 53
18,Cc1ccc(S(=O)(=O)N2CCN(C(=O)N(C)C)CC2)cc1,> 46.7
19,Cc1cnc(NC(=O)CSCc2c(C)noc2C)s1,19.6
20,N#CCCN(C(=O)COC(=O)CCC(=O)c1cccs1)c1ccccc1,> 55.6
21,CCN(Cc1ccncc1)C(=O)c1ccc(C)o1,> 36.6
22,CC1CCC(NC(=O)CC(NC(N)=O)c2ccccc2Cl)CC1 (configuration not stated),46.6

row,Compound,solubility kinetic [µg/mL]
1,O=[N+]([O-])c1cccc(CN2CC=C(c3ccc(F)cc3)CC2)c1,3.3
2,CCOC(=O)C1CCN(C(=O)c2cc3ccccc3oc2=O)CC1,48.4
3,Cc1ccccc1CC(=O)NC1CCN(C)CC1,> 37
4,CCn1c(COc2ccccc2OC)nc2ccccc21,41.9
5,CCCCN(C(=O)C1CCCC1)C1CCS(=O)(=O)C1 (configuration not stated),> 43.1
6,COc1cc(C2NC(=O)NC(C)=C2[N+](=O)[O-])cc(OC)c1OC (configuration not stated),47.3
7,COC(=O)c1ccc(NC(=O)N(c2ccccc2)c2ccccc2)cc1,0.7
8,O=C(NCc1ccccc1)N1CCOCC1,> 33
9,Cc1ccc(CCNC(=O)CSCc2ccc(F)cc2)cc1,13.5
10,Cc1nc2c(C)cccc2c2c1CCS2,0.5
11,Cn1nccc1NS(=O)(=O)c1ccc(NC(=O)C(F)(F)F)cc1,> 52.2
12,C(=C\c1nc(-c2cccnc2)no1)/c1ccccc1,3.4
13,COc1ccc(C(=O)NCCc2ccccc2)cc1OC,40.1
14,O=c1c2ccccc2[nH]c(=S)n1Cc1ccccc1Cl,0.9
15,CC1(c2cccc(Br)c2)NC(=O)NC1=O (configuration not stated),> 40.4
16,Cc1ccc(O)c(CO)n1,> 20.9
17,CCCN(Cc1ccccc1)C(=S)Nc1ccc(OCC)cc1,17.9
18,COc1ccc(NC(=O)COC(=O)c2ccc3c(c2)OCO3)c(OC)c1,1.9
19,CC(C(=O)OCC(=O)NC1CCCCC1)N1C(=O)c2ccccc2C1=O (configuration not stated),> 53.8
20,COc1ccc(NC(=O)CSc2nc(C)cs2)c([N+](=O)[O-])c1,45.1
21,CC(C)C(=O)N1CCN(S(=O)(=O)c2ccc3ccccc3c2)CC1,23.2
22,CC(=O)c1c(COC(=O)c2ccc(Cl)cc2)nc2ccccc2[n+]1[O-],0.6

row,Compound,solubility kinetic [µg/mL]
1,Cn1c(N)c(C(C[N+](=O)[O-])c2c(F)cccc2Cl)c(=O)n(C)c1=O (configuration not stated),> 53.5
2,COc1ccc2nc(C)c(C(N)=O)cc2c1,> 32.4
3,O=C(NCCNC(=O)c1cnccn1)c1cccc(Cl)c1,42.7
4,CCOc1ccc2c(c1)c1nc3ccccc3nc1n2C,< 0.2
5,COc1ccc(S(=O)(=O)NC2CC2)cc1Cl,35.3
6,O=C(COc1ccc(Cl)cc1)N1CCCCCCC1,31.8
7,Cc1cc(SCc2cccc(Cl)c2)nc(=O)[nH]1,39.9
8,O=C(CCC(=O)Nc1ccccc1)N/N=C/c1cccnc1,> 44.4
9,O=C(Nc1ccccc1)Nc1ccc2ccccc2n1,< 0.2
10,CCOc1cc(CN2CCc3c([nH]c4ccccc34)C2)ccc1OC,32.8
11,Nc1ccc(OCCc2ccccc2)cc1,28.3
12,CCCCC1C2C(=O)N(c3ccccc3)C(=O)C2ON1c1ccccc1 (configuration not stated),49.1
13,O=C(Nc1ccc2nccnc2c1)Nc1ccccc1Cl,1
14,CCNC(=S)N1CCC(C(N)=O)CC1,> 32.3
15,COc1ccc(CNc2ccc(N3CCOCC3)cc2)cc1,40.9
16,CC(=O)N1C(=O)NC(c2ccccc2)=C([N+](=O)[O-])C1c1ccccc1 (configuration not stated),43.2
17,Cc1cc(C(=O)Nc2ccccc2)c2ccccc2n1,3
18,Fc1ccc(Nc2ncnc3sccc23)cc1,32.8
19,COC(=O)c1ccc(OCC(O)CN2CCOCC2)cc1 (configuration not stated),> 44.3
20,CC(=O)Nc1ccc(OCC(=O)Nc2ccc(Cl)c(S(=O)(=O)N3CCOCC3)c2)cc1,10.7
21,C/C(=N\NC(=O)CCC(=O)NCc1ccccc1)c1ccco1,> 47
